Assay [1] deals with Proteus mirabilis. Kind of assay: Antibacterial activity against Proteus mirabilis at 25 ug/ml after 24 hrs agar diffusion method. Format: functional. Particulars: read-out: DIZ. (In agar diffusion tests the substance spreads into inoculated agar from a disc or well.)
In assay [2] the test system is Proteus mirabilis. Kind of assay: Antibacterial activity against Proteus mirabilis at 50 ug/ml after 24 hrs agar diffusion method. Particulars: read-out: DIZ. Format: functional.
Assay [3] concerns Proteus mirabilis. The assay is described as follows: Antibacterial activity against Proteus mirabilis at 75 ug/ml after 24 hrs agar diffusion method. In kind it is functional. Particulars: read-out: DIZ.
For assay [4], the system named is Proteus mirabilis. The assay is described as follows: Antibacterial activity against Proteus mirabilis at 100 ug/ml after 24 hrs agar diffusion method. As to conditions: read-out: DIZ. In kind it is functional.
Assay [5] concerns Proteus vulgaris. The assay is described as follows: Antibacterial activity against Proteus vulgaris at 25 ug/ml after 24 hrs agar diffusion method. In kind it is functional. Particulars: read-out: DIZ.
The test system of assay [6] is Proteus vulgaris. The assay is described as follows: Antibacterial activity against Proteus vulgaris at 50 ug/ml after 24 hrs agar diffusion method. Particulars: read-out: DIZ. Format: functional.
Assay [7] deals with Proteus vulgaris. The assay is described as follows: Antibacterial activity against Proteus vulgaris at 75 ug/ml after 24 hrs agar diffusion method. Format: functional. Particulars: read-out: DIZ.
Assay [8] concerns Proteus vulgaris. Kind of assay: Antibacterial activity against Proteus vulgaris at 100 ug/ml after 24 hrs agar diffusion method. In kind it is functional. As to conditions: read-out: DIZ.
The test system of assay [9] is Salmonella typhi. Kind of assay: Antibacterial activity against Salmonella typhi at 25 ug/ml after 24 hrs agar diffusion method. In kind it is functional, Salmonella enterica subsp. enterica serovar Typhi. Particulars: Salmonella enterica, read-out: DIZ.
For assay [10], the system named is Salmonella typhi. Kind of assay: Antibacterial activity against Salmonella typhi at 50 ug/ml after 24 hrs agar diffusion method. Format: functional, Salmonella enterica subsp. enterica serovar Typhi. As to conditions: Salmonella enterica, read-out: DIZ.
The subject of assay [11] is Salmonella typhi. Kind of assay: Antibacterial activity against Salmonella typhi at 75 ug/ml after 24 hrs agar diffusion method. Format: functional, Salmonella enterica subsp. enterica serovar Typhi. Particulars: Salmonella enterica, read-out: DIZ.
The subject of assay [12] is Salmonella typhi. The assay is described as follows: Antibacterial activity against Salmonella typhi at 100 ug/ml after 24 hrs agar diffusion method. Format: functional, Salmonella enterica subsp. enterica serovar Typhi. Particulars: Salmonella enterica, read-out: DIZ.
Assay [13] has as its system Staphylococcus aureus. Kind of assay: Antibacterial activity against Staphylococcus aureus at 25 ug/ml after 24 hrs agar diffusion method. Format: functional. As to conditions: read-out: DIZ.
The test system of assay [14] is Staphylococcus aureus. Kind of assay: Antibacterial activity against Staphylococcus aureus at 50 ug/ml after 24 hrs agar diffusion method. Format: functional. Particulars: read-out: DIZ.
Assay [15] concerns Staphylococcus aureus. The assay is described as follows: Antibacterial activity against Staphylococcus aureus at 75 ug/ml after 24 hrs agar diffusion method. In kind it is functional. Particulars: read-out: DIZ.
Assay [16] relates to Staphylococcus aureus. Kind of assay: Antibacterial activity against Staphylococcus aureus at 100 ug/ml after 24 hrs agar diffusion method. Particulars: read-out: DIZ. In kind it is functional.

As for `CCOC(=O)[C@@H]1[C@@H]([C@H]2[C@@H](Oc3ccccc3)C(=O)N2c2ccc(OC)cc2)C2CCCN2[C@]12C(=O)Nc1ccccc12` (stereo partly drawn), the zone of inhibition at 25 µg/mL in the assay on Proteus mirabilis [1] turned out to be 12 mm; in the assay on Proteus vulgaris [5], 19 mm; with Salmonella typhi [9] it was 13 mm; in the assay on Staphylococcus aureus [13] it was 14 mm. The zone of inhibition at 50 µg/mL with Proteus mirabilis [2] was 16 mm; in the assay with Proteus vulgaris [6], 20 mm; with Salmonella typhi [10], 16 mm; with Staphylococcus aureus [14] it was 18 mm. Further, the zone of inhibition at 75 µg/mL is 24 mm in the assay with Proteus mirabilis [3], 27 mm with Proteus vulgaris [7], 21 mm in the assay with Salmonella typhi [11] and 22 mm in the assay on Staphylococcus aureus [15]. Moreover, the zone of inhibition at 100 µg/mL with Proteus mirabilis [4] is 36 mm; in the assay with Proteus vulgaris [8], greater than 40 mm; in the assay on Salmonella typhi [12] it was 31 mm; with Staphylococcus aureus [16] it was 34 mm.
As to `CCOC(=O)[C@@H]1[C@@H]([C@H]2[C@@H](c3ccccc3)C(=O)N2c2ccc(OC)cc2)C2CCCN2[C@]12C(=O)Nc1ccccc12` (stereo partly drawn), the zone of inhibition at 25 µg/mL was found to be 14 mm in the assay with Proteus mirabilis [1], 13 mm with Proteus vulgaris [5], 11 mm with Salmonella typhi [9] and 9 mm with Staphylococcus aureus [13]. Besides, the zone of inhibition at 50 µg/mL is 18 mm in the assay with Proteus mirabilis [2], 21 mm in the assay with Proteus vulgaris [6], 14 mm with Salmonella typhi [10] and 16 mm in the assay with Staphylococcus aureus [14]. In addition, the zone of inhibition at 75 µg/mL with Proteus mirabilis [3] is 21 mm; in the assay on Proteus vulgaris [7] it was 25 mm; in the assay with Salmonella typhi [11], 18 mm; in the assay with Staphylococcus aureus [15] it was 21 mm. In addition, the zone of inhibition at 100 µg/mL in the assay with Proteus mirabilis [4] is 32 mm; in the assay on Proteus vulgaris [8], greater than 40 mm; with Salmonella typhi [12], 26 mm; in the assay with Staphylococcus aureus [16] it was 31 mm.
With `CN(C)[C@@H]1C(O)=C(C(N)=O)C(=O)[C@@]2(O)C(O)=C3C(=O)c4c(O)cccc4[C@@](C)(O)[C@H]3C[C@@H]12` [TETRACYCLINE], the zone of inhibition at 25 µg/mL in the assay with Proteus mirabilis [1], with Proteus vulgaris [5], in the assay on Salmonella typhi [9] and with Staphylococcus aureus [13] was 18 mm throughout. In addition, the zone of inhibition at 50 µg/mL is 24 mm with Proteus mirabilis [2], 24 mm with Proteus vulgaris [6], 22 mm with Salmonella typhi [10] and 22 mm with Staphylococcus aureus [14]. The zone of inhibition at 75 µg/mL in the assay with Proteus mirabilis [3], in the assay with Proteus vulgaris [7], in the assay with Salmonella typhi [11] and with Staphylococcus aureus [15] was 28 mm throughout. Further, the zone of inhibition at 100 µg/mL with Proteus mirabilis [4], with Proteus vulgaris [8], in the assay on Salmonella typhi [12] and with Staphylococcus aureus [16] was greater than 40 mm each time.

The values above are taken from ChEMBL document CHEMBL1667751, “Synthesis and antimicrobial activity of highly functionalised novel β-lactam grafted spiropyrrolidines and pyrrolizidines” (2011).
